The test system of one series is caspase-3. The series is described as follows: Western blot of caspase-3 after hRPIA siRNA knockdown. The format is cell-based. The text has this:
(§1) To examine whether the knockdown of hRPIA in hepatic cancer cells induces cell apoptosis, we used specific siRNA which sequence is: […] (SEQ NO. 1) and; […] (SEQ NO. 2) to knock down hRPIA expression. Next, we used western blot to examine the protein level of caspase-3 and β-catenin. […] A similar data was obtained in PLC5 and HepG2 (FIG. 14B and FIG. 14C respectively).
(§2) To examine whether the knockdown of hRPIA in colon cancer cells induces cell apoptosis, we used specific siRNA which sequence is: […] (SEQ NO. 1) and; […] ([…]) to knock down hRPIA expression. Next, we used western blot to examine the protein level of caspase-3 and β-catenin.

The test system of another series is hRPIA. Nature of the series: Western blot of hRPIA protein level after siRNA knockdown or pcDNA3-hRPIA transfection. The format is cell-based, human. As to conditions: siRNA knockdown, 48 hours. In general terms: In western blotting, separated proteins are transferred to a membrane and probed.
The subject of another series is PLC5 liver cancer cells. Nature of the series: MTT cell viability assay, PLC5. The format is cell-based. As to conditions: PLC5, 5-FU 0, 5, 15, 25 μg/mL, vs si-negative control transfected cells. The source says: (§3) Further, we used 3-(4,5-dimethylthiazol-2-yl)-2,5-diphenyltetrazolium bromide (MTT) assay to examine whether the knockdown of hRPIA reduces cancer cell viability. […] A similar data was obtained in PLC5 and HepG2 (FIG. 3B and FIG. 3C respectively).
(§4) Further, we used 3-(4,5-dimethylthiazol-2-yl)-2,5-diphenyltetrazolium bromide (MTT) assay to examine whether the over-expression of hRPIA in cancer cells induces cancer cell viability. […] A similar data was obtained in PLC5 and HepG2 (FIG. 7B and FIG. 7C respectively).
(§5) To examine the influence of chemotherapeutic agents on cell growth of liver cancer cell after knocking down of hRPIA, we used specific siRNA to knockdown hRPIA expression and then added 5-fluorouracil (5-FU) by 0, 5, 15, 25 μg/mL into Hep3B, PLC5 and HepG2. Further, we used 3-(4,5-dimethylthiazol-2-yl)-2,5-diphenyltetrazolium bromide (MTT) assay to examine whether the over-expression of hRPIA in cancer cells induces cancer cell viability.

The next series has as its system SW480 colon cancer cells. The series is described as follows: MTT cell viability assay, SW480. The note with it: for cell viability by MTT assay after hRPIA knockdown: SW480, 20 nM siRNA. Format: cell-based. The text has this:
(§6) Further, we used 3-(4,5-dimethylthiazol-2-yl)-2,5-diphenyltetrazolium bromide (MTT) assay to examine whether the knockdown of hRPIA reduces cancer cell viability. […] A similar data was obtained in SW620 (FIG. 5B).
(§7) Further, we used 3-(4,5-dimethylthiazol-2-yl)-2,5-diphenyltetrazolium bromide (MTT) assay to examine whether the over-expression of hRPIA in cancer cells induces cancer cell viability. […] A similar data was obtained in SW620 (FIG. 9B).
(§8) To examine the influence of chemotherapeutic agents on cell growth of colon cancer cell after knocking down of hRPIA, we used specific siRNA to knock down hRPIA expression and then added 5-fluorouracil (5-FU) by 0, 5, 15, 25 μg/mL into SW480 and SW620. Further, we used 3-(4,5-dimethylthiazol-2-yl)-2,5-diphenyltetrazolium bromide (MTT) assay to examine whether the over-expression of hRPIA in cancer cells induces cancer cell viability.
Background: Formazan colour is commonly taken as a measure of viable cells.

Another series concerns HepG2 liver cancer cells. The series is described as follows: MTT cell viability assay, HepG2. As to conditions: HepG2, 5-FU 0, 5, 15, 25 μg/mL, vs si-negative control transfected cells. The format is cell-based.
Description: as §3, §4, §5

The next series concerns Hep3B. The series is described as follows: Wound healing assay (cell motility), Hep3B. Format: cell-based. As to conditions: Hep3B, 0, 18 and 24 hours. The method, then: To examine whether the knockdown of hRPIA in cancer cells reduces cell motility, we used specific siRNA to knock down hRPIA expression. To quantify the cancer cell survival rate under the treatment of siRNA against hRPIA which sequence is: […] (SEQ NO. 1) and; […] (SEQ NO. 2) for 0, 18 and 24 hours, we perform wound healing assay to examine the cell motility of hRPIA in Hep3B which were treated with siRNA-hRPIA (cultured in 10% fetal bovine serum with DMEM in 37° C., 5% CO2 for 48 hours) as shown in FIG. 12 respectively. As shown in the figs, the cell motility is lower after adding siRNA.

A further series deals with SW620 colon cancer cells. Nature of the series: MTT cell viability assay, SW620. The format is cell-based.
Description: as §6, §7, §8

Another series deals with β-catenin. Nature of the series: Western blot of β-catenin after hRPIA siRNA knockdown. The format is cell-based.
Description: as §1, §2

The test system of another series is Hep3B liver cancer cells. Nature of the series: MTT cell viability assay, Hep3B. The format is cell-based.
Description: as §3, §4, §5

A further series concerns SW480. The series is described as follows: Wound healing assay (cell motility), SW480. The format is cell-based. The note with it: SW480, 0, 14 and 24 hours. The protocol:
To examine whether the knockdown of hRPIA in colon cancer cells reduces cell motility, we used specific siRNA to knock down hRPIA expression. To quantify the cancer cell survival rate under the treatment of siRNA against hRPIA which sequence is: […] (SEQ NO. 1) and; […] (SEQ NO. 2) for 0, 14 and 24 hours, we perform wound healing assay to examine the cell motility of hRPIA in SW480 which were treated with siRNA-hRPIA (cultured in 10% fetal bovine serum with DMEM in 37 °C, 5% CO2 for 48 hours) as shown in FIG. 13 respectively. As shown in the figs, the cell motility is lower after adding siRNA.

“siRNA-hRPIA: siRNA against hRPIA, sequence UUCACUUCACUCCAUUUGUGUACCC (SEQ NO. 1) and GGGUACACAAAUGGAGUGAAGUGAA (SEQ NO. 2) (listed as RNA, chemistry not given here)”: the “caspase-3 protein level (western blot)” value in the series on caspase-3 (Hep3B, 48 hours) is reported as “increased activity of caspase-3”; with caspase-3 (HepG2), “increases caspase-3 expression”; with caspase-3 (PLC5) it was “increases caspase-3 expression”; in the series on caspase-3 (SW480, 48 hours), “increased activity of caspase-3”. Further, the “hRPIA protein level (western blot)” value is reported as “lower” in the series on hRPIA (Hep3B liver cancer cells, vs si-negative control); “lower” with hRPIA (HepG2 liver cancer cells); “lower” in the series with hRPIA (PLC5 liver cancer cells, vs si-negative control); “lower” in the series with hRPIA (SW480 colon cancer cells); “lower” with hRPIA (SW620 colon cancer cells). For the same substance, the “cytotoxicity caused by 5-fluorouracil after hRPIA knockdown (MTT)” value with PLC5 liver cancer cells was “significantly enhanced the cytotoxicity”; in the series with SW480 colon cancer cells (SW480, 5-FU 0, 5, 15, 25 μg/mL, vs si-negative control transfected cells), “significantly enhanced the cytotoxicity”; in the series on HepG2 liver cancer cells, “significantly enhanced the cytotoxicity”; in the series on SW620 colon cancer cells (SW620, 5-FU 0, 5, 15, 25 μg/mL, vs si-negative control transfected cells) it was “significantly enhanced the cytotoxicity”; in the series with Hep3B liver cancer cells (5-FU 0, 5, 15, 25 μg/mL, vs si-negative control transfected cells), “significantly enhanced the cytotoxicity”. The “cell viability by MTT assay after hRPIA knockdown” value in the series on SW480 colon cancer cells is on record as “significant reduction in cell viability”; in the series with SW480 colon cancer cells (listed as siRNAs against hRPIA), “significantly reduced cell viability”; in the series on SW620 colon cancer cells (SW620, 20 nM siRNA) it was “significantly reduced cell viability”; in the series with Hep3B liver cancer cells (20 nM siRNA), “significant reduction in cell viability”. The “cell motility (wound healing assay)” value in the series on Hep3B and in the series on SW480 was “lower” throughout. The “β-catenin protein level (western blot)” value in the series on β-catenin (Hep3B) was “slightly reduction”; with β-catenin (HepG2) it was “significant reduction”; with β-catenin (PLC5) it was “slightly reduction”; in the series on β-catenin (SW480), “significant reduction”.

Values taken from patent US8785412B2, “Method for inducing cancer cell apoptosis or inhibiting the cancer cell migration” (National Tsing Hua University, priority 2011, dated 2014).
